# Where two headings read alike, the source gives them in different places.
# Experiments:
# [1] = target: T1, Aurora2 (Homo sapiens, UniProt O14965); experiment: Aurora inhibition, standard coupled enzyme assay; type: biochemical; conditions: 40 μM ATP, 30° C.; read-out: Aurora2 Inhibitory Activity (IC50 class)
# T1 sequence (O14965 1-403): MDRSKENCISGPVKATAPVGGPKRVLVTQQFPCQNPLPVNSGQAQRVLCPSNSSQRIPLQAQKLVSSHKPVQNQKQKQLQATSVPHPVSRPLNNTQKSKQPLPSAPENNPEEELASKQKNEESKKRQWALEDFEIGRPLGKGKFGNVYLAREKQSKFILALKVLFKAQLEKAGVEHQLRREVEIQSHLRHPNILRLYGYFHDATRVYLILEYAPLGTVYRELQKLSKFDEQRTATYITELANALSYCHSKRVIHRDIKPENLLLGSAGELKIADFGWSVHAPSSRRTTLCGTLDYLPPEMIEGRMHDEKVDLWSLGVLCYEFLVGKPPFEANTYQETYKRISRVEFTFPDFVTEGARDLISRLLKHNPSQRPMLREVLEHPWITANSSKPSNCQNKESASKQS
# Description: Compounds were screened in the following manner for their ability to inhibit Aurora using a standard coupled enzyme assay. To an assay stock buffer solution containing 0.1M HEPES 7.5, 10 mM MgCl2, 25 mM NaCl, 2.5 mM phosphoenolpyruvate, 300 μM NADH, 30 μg/mL pyruvate kinase, 10 μg/mL lactate dehydrogenase, 40 μM ATP, and 800 μM peptide (LRRASLG, American Peptide, Sunnyvale, Calif.) was added a 30 μM solution of the compound in DMSO and the resulting mixture incubated at 30° C. for 10 min. The reaction was initiated by the addition of 10 μL of 70 nM Aurora and 1 mM DTT. The rates of reaction were obtained by monitoring absorbance at 340 nm over a 5 minute read time at 30° C. using a BioRad Ultramark plate reader (Hercules, Calif.). The IC50 was determined from the rate data as a function of inhibitor concentration.
# The compound numbers correspond to the compound numbers in Table 1.
# [2] = target: ERK2 (Homo sapiens, UniProt P28482); experiment: ERK2 inhibition, spectrophotometric coupled-enzyme assay; type: biochemical; conditions: activated ERK2 10 nM, 65 μM ATP, 30° C., pH 7.5
# Sequence of ERK2 (P28482 whole entry): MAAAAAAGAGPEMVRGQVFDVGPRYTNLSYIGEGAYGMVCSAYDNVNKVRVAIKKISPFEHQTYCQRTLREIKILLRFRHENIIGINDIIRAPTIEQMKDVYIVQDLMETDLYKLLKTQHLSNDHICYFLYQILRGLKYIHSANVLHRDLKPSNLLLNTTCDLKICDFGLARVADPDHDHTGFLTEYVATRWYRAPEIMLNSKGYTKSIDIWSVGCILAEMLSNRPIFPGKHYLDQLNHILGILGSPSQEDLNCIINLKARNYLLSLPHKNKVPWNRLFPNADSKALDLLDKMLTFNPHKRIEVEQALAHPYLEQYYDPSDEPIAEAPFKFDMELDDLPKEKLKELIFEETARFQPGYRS
# [3] = read-out: ERK2 Inhibitory Activity (Ki class)
SMILES,"Ki [2, 3]",also measured
O=C(NOCc1ccccc1)c1cc(-c2[nH]ncc2-c2cccc(Cl)c2)c[nH]1 [II-57],–,IC50 [1]: < 5 µM
CCN(C)C(=O)c1cc(-c2n[nH]cc2-c2cccc(Cl)c2)c[nH]1 [II-93],–,IC50 [1]: < 5 µM
COc1cc(OC)c(CNC(=O)c2cc(-c3[nH]ncc3-c3cccc(Br)c3)c[nH]2)c(OC)c1 [II-118],1 to 5 µM,–
O=C(NCc1cccnc1)c1cc(-c2[nH]ncc2-c2cccc(F)c2)c[nH]1 [II-119],1 to 5 µM,–
O=C(NCC1CCCO1)c1cc(-c2[nH]ncc2-c2ccc(F)c(F)c2)c[nH]1 (stereo not shown) [II-120],1 to 5 µM,–
CC(C)(C)OC(=O)N1CCCC(CNC(=O)c2cc(-c3[nH]ncc3-c3cccc(Cl)c3F)c[nH]2)C1 (stereo not shown) [II-121],1 to 5 µM,–
COc1cccc(N2CCN(C(=O)c3cc(-c4[nH]ncc4-c4cccc(Br)c4)c[nH]3)CC2)c1 [II-122],1 to 5 µM,–
O=C(c1cc(-c2[nH]ncc2-c2cccc(Br)c2)c[nH]1)N1CCC(O)(c2ccc(Br)cc2)CC1 [II-123],1 to 5 µM,–
COc1ccc(OC)c(CNC(=O)c2cc(-c3[nH]ncc3-c3cccc(Br)c3)c[nH]2)c1 [II-124],1 to 5 µM,–
CC(C)(C)OC(=O)N1CCCC(CNC(=O)c2cc(-c3[nH]ncc3-c3cc(Cl)cc(Cl)c3)c[nH]2)C1 (stereo not shown) [II-125],1 to 5 µM,–
Cc1ccc(N2CCN(C(=O)c3cc(-c4[nH]ncc4-c4cccc(Br)c4)c[nH]3)CC2)cc1 [II-126],1 to 5 µM,–
O=C(c1cc(-c2[nH]ncc2-c2ccc(Cl)c(Cl)c2)c[nH]1)N1CCOCC1 [II-127],1 to 5 µM,–
O=C(c1cc(-c2[nH]ncc2-c2cccc(Br)c2)c[nH]1)N1CCN(c2ccc(F)cc2)CC1 [II-128],1 to 5 µM,–
O=C(c1cc(-c2[nH]ncc2-c2cccc(Cl)c2F)c[nH]1)N1CCOCC1 [II-129],1 to 5 µM,–
O=C(NCCO)c1cc(-c2[nH]ncc2-c2cccc(Br)c2)c[nH]1 [II-130],1 to 5 µM,–
Nc1cccc(-c2cn[nH]c2-c2c[nH]c(C(=O)NCc3ccccc3)c2)c1 [II-131],1 to 5 µM,–

SMILES,"Ki [2, 3]",also measured
COC(=O)c1cccc(-c2cn[nH]c2-c2c[nH]c(C(=O)NCc3ccccc3)c2)c1 [II-132],1 to 5 µM,–
COc1ccc(-c2cn[nH]c2-c2c[nH]c(C(=O)NOCc3ccccc3)c2)cc1 [II-133],1 to 5 µM,–
COc1cccc(-c2cn[nH]c2-c2c[nH]c(C(=O)N3CCOCC3)c2)c1 [II-135],1 to 5 µM,–
CC1CCN(C(=O)c2cc(-c3[nH]ncc3-c3cccc(Cl)c3)c[nH]2)CC1 [II-136],1 to 5 µM,–
NNC(=O)c1cc(-c2[nH]ncc2-c2cccc([N+](=O)[O-])c2)c[nH]1 [II-137],1 to 5 µM,–
O=C(c1cc(-c2[nH]ncc2-c2cccc(Br)c2)c[nH]1)N1CCN(c2cnccn2)CC1 [II-138],1 to 5 µM,–
O=C(c1cc(-c2[nH]ncc2-c2cccc(Br)c2)c[nH]1)N(CCCO)Cc1ccccc1 [II-139],1 to 5 µM,–
O=C(NOCc1ccccc1)c1cc(-c2[nH]ncc2-c2ccc(F)cc2)c[nH]1 [II-146],1 to 5 µM,–
CCOC(=O)c1cc(-c2[nH]ncc2-c2cccc([N+](=O)[O-])c2)c[nH]1 [II-148],1 to 5 µM,–
CCOC(=O)c1cc(-c2[nH]ncc2-c2cccc(Cl)c2)c[nH]1 [II-151],1 to 5 µM,–
CNC(=O)c1cc(-c2[nH]ncc2-c2cccc(Br)c2)c[nH]1 [II-152],1 to 5 µM,–
O=C(NC1c2ccccc2CC1O)c1cc(-c2[nH]ncc2-c2cccc(Cl)c2)c[nH]1 (stereo not shown) [II-155],–,Ki ([2]; ERK2 Inhibitory Activity (Ki class)): 1 to 5 µM
O=C(c1cc(-c2[nH]ncc2-c2cccc(Br)c2)c[nH]1)N(CCCO)Cc1ccncc1 [II-156],1 to 5 µM,–
CCOC(=O)c1cc(-c2[nH]ncc2-c2cccc(Br)c2)c[nH]1 [II-157],1 to 5 µM,–
CC(C)NC(=O)c1cc(-c2[nH]ncc2-c2cccc(C(=O)O)c2)c[nH]1 [II-160],1 to 5 µM,–
